Measured values reported in US8461141B2, “Preventive or therapeutic drug for Alzheimer-type dementia” (Mochida Pharmaceutical Co., Ltd., priority 2005, dated 2013).
Where “and” joins values, the source holds several entries; their conditions need not be identical. Equal values may be shown once.

Assays:
[1] = test system: patients diagnosed with cerebrovascular dementia; assay: Hasegawa Dementia Scale and symptom observation in patients with cerebrovascular dementia (Reference Example); type: in vivo, human; conditions: for Hasegawa Dementia Scale After 2 months: individual cerebrovascular dementia patients, EPA-E alone 300 or 600 mg/day for 2 months
Description: (§1) Each patient was evaluated for the improvement of the dementia by Hasegawa Dementia Scale at the start of the test, 2 months after the start of the test (2 months from the start of administering ethyl icosapentate), and 6 months after the start of the test (4 months after the start of the combined administration of the ethyl icosapentate and the levothyroxine sodium).

[2] = test system: patients diagnosed with Alzheimer-type dementia; assay: Hasegawa Dementia Scale and symptom observation in patients with Alzheimer-type dementia; type: in vivo, human; conditions: for Hasegawa Dementia Scale After 2 months: individual Alzheimer-type dementia patients, EPA-E alone 300 or 600 mg/day for 2 months, scale of 30
Description: as §1

SMILES: CC/C=C\C/C=C\C/C=C\C/C=C\C/C=C\CCCC(=O)OCC [EPA-E, ethyl icosapentate]
- Score of the Hasegawa Dementia Scale (range) 2 months after the start of the test ([1]; 10 cerebrovascular dementia patients, EPA-E alone 300-600 mg/day): (9-15)
- Score of the Hasegawa Dementia Scale (average ± standard deviation) 2 months after the start of the test ([1]; 10 cerebrovascular dementia patients, EPA-E alone 300-600 mg/day, at the start 10.4 ± 1.7): 11.2 ± 1.9
- Hasegawa Dementia Scale After 2 months ([1]; EPA-E 300 mg/day): 13 and 10 (2×) and 12
- Hasegawa Dementia Scale After 2 months ([1]; EPA-E 600 mg/day): 15 and 11 (2×) and 12 and 9 (2×)
- Score of the Hasegawa Dementia Scale (range) 2 months after the start of the test ([2]; 14 Alzheimer-type dementia patients, EPA-E alone 300-600 mg/day): (7-17)
- Score of the Hasegawa Dementia Scale (average ± standard deviation) 2 months after the start of the test ([2]; 14 Alzheimer-type dementia patients, EPA-E alone 300-600 mg/day, at the start 10.0 ± 3.5): 11.4 ± 3.0
- Change in the scores of the Hasegawa Dementia Scale, in words ([2]; Alzheimer-type dementia patients, sole administration of ethyl icosapentate 300 to 600 mg/day for 2 months): no substantial change
- Hasegawa Dementia Scale After 2 months ([2]; EPA-E 300 mg/day): 14 and 12 and 11 and 10 and 7 and 9
- Hasegawa Dementia Scale After 2 months ([2]; EPA-E 600 mg/day): 7 and 8 and 11 (2×) and 17 and 13 and 15 and 14
